Patent US8614021B2, “Agents for enhanced charge transport across microbial membranes” (The United States of America as represented by the …, priority 2010, dated 2013)
Entries after “also recorded” stand apart in the source; their conditions may differ.

Tests used:
yeast = assay: Yeast microbial fuel cell (U-tube MFC) voltage production; format: cell-based; conditions: for Maximum voltage (Vmax): across a 10 kΩ resistor
Excerpt: Two-chamber MFCs were constructed in a similar fashion as previously described (Milliken, C. E.; May, H. D. Appl. Microbiol. Biotechnol. 2007, 73, 1180-1189; Sund, C. J.; Wong, M. S.; Sumner, J. J. Biosens. Bioelectron. 2009, 24, 3144-3147; Sund, C. J.; McMasters, S.; Crittenden, S. R.; Harrell, L. E.; Sumner, J. J. Appl. Microbiol. Biotechnol. 2007, 76, 561-568) with some modifications and pictured in FIG. 9. The anodes and cathodes consisted of carbon felt (100% Activated Carbon Fiber Filter, CarboPur Technologies, Montreal, Canada), ⅛ inch thick, cut to the dimensions of 5 cm by 1 cm. The carbon felts were attached to 0.25 mm diameter titanium wires (AlfaAesar, Ward Hill, Mass.) as electrical leads. A new piece of Nafion® 117 (DuPont, Wilmington, Del., USA) was used for each fuel cell. Anode wires were passed through silicone rubber septa used to seal the anode compartment following inoculation while the cathode compartment was covered with a loose-fitting glass vial. Each fuel cell compartment was filled with 20 ml of media and autoclaved. Inoculation of MFCs consisted of addition of 300 μL of stained (25 μM COE) or unstained yeast stock solution (O.D.=1.75). Methylene blue was added separately as a stock solution (0.1% by weight, 2.67 mM) for the positive control runs employing this mediator. MFCs were incubated in an aerobic 30° C. incubator and the potential across a 10 kΩ resistor was measured and recorded every 10 seconds via a DAQPad-6016 and a custom LabView® VI (National Instruments, Austin, Tex., USA).
A U-tube type MFC (Milliken, C. E.; May, H. D. Appl. Microbiol. Biotechnol. 2007, 73, 1180-1189; Sund, C. J.; Wong, M. S.; Sumner, J. J. Biosens. Bioelectron. 2009, 24, 3144-3147; Sund, C. J.; McMasters, S.; Crittenden, S. R.; Harrell, L. E.; Sumner, J. J. Appl. Microbiol. Biotechnol. 2007, 76, 561-568) (FIG. 9) was employed to test and compare the performance of a series of yeast MFCs employing nM concentrations of DSSN+ and DSBN+ to the performance of a series of negative controls with no external mediator and a series of positive controls employing the common electron transport mediator methylene blue in μM concentrations. The details of MFC construction, preparation, and evaluation are discussed in detail in the section entitled “Microbial fuel cell preparation and assembly.” MFC performance was evaluated in terms of voltage instead of current. Voltage readings were obtained as a function of current across a 10 kΩ resistor.

[1] = Cyclic voltammetry blocking experiment: transmembrane electron transport across sBLMs to aq. ferricyanide; conditions: for transmembrane electron transport across sBLM (current in CV): 2 mol % in DMPC and DPPC sBLMs, aq. ferricyanide, 200 mV/s scan rate
Experimental: Bilayer membranes supported on glassy carbon electrodes were prepared according to a modified literature procedure (Huang, W.; Zhang, Z.; Han, X.; Tang, J.; Wang, J.; Dong, S.; Wang, E. Biophys. J. 2002, 83, 3245-3255; Wu, Z.; Tang, J.; Cheng, Z.; Yang, X.; Wang, E. Anal. Chem. 2000, 72, 6030-6033). […] Electrode surface modification was performed by applying a constant 1.5 V bias for four minutes to a freshly polished glassy carbon electrode submerged in a 0.1 M aq. NaOH solution. Upon completion of this process the electrode was dried via argon steam followed by deposition of a 5 μL aliquot of the desired DMPC membrane forming solution to the electrode surface. The solvent was allowed to evaporate and electrode was immediately placed into phosphate buffer (pH 7.4) to allow the bilayer to assemble over a 0.5 hour time period. The working electrode containing the supported bilayer lipid membrane (sBLM) was then used directly.
Cyclic voltammograms were collected at scan rates of 50-200 mV/sec using a standard three-electrode setup that employed a Pt wire counter electrode, a Ag/AgCl reference electrode and a glassy carbon working electrode (modified or unmodified). All runs were performed in aq. 0.5 M KCl electrolyte solution containing 1 mM potassium ferricyanide (the active redox and indicator species). Oxygen was removed from the system via bubbling Ar through the solution for several minutes prior to data collection. The working electrode was freshly polished between each run prior to voltammogram collection or sBLM formation followed by voltammogram collection. Data was collected within the range of 0-0.4 V potentials relative to Ag/AgCl.
OPVs within a saturated alkane thiol monolayer can facilitate charge tunneling from a metallic electrode to a tethered redox species (Dudek, S. P.; Sikes, H. D.; Chidsey, C. E. D. J. Am. Chem. Soc. 2001, 123, 8033-8038; Sikes, H. D.; Smalley, J. F.; Dudek, S. P.; Cook, A. R.; Newton, M. D.; Chidsey, C. E. D.; Feldberg, S. W. Science. 2001, 291, 1519-1523). A variation of this approach was used in which supported bilayer membranes (sBLM) containing DSSN+, DSBN+ and other control molecules were prepared on the surface of a glassy carbon electrode surface. The sBLM-modified electrodes were then employed in a series of ‘blocking’ experiments in which cyclic voltammetry was used to monitor the reversible […] of aqueous ferricyanide. The unmodified sBLM acts as an insulating layer between the working electrode and the solution containing ferricyanide thereby greatly suppressing the redox current (Wiegand, G.; Arribas-Layton, N.; Hillebrandt, H.; Sackmann, E.; Wagner, P. J. Phys. Chem. B. 2002, 106, 4245-4254; Żebrowska, A.; Krysiński, P.; ? otowski, Z. Bioelectrochemistry. 2002, 56, 179-184). […]

[2] = Cyclic voltammetry, oxidation of the oligoelectrolytes (current/potential curves); format: physicochemical; conditions: vs. Ag/AgCl, 200 mV/s scan rate
Baker's yeast = assay: Yeast cell staining, confocal/epi-fluorescence imaging; format: cell-based; conditions: for accumulation within cell membranes (fluorescence images): 100 μM, 1 hour of shaking, excitation 488 nm
Experimental: Stock solutions of DSSN+ and DSBN+ (1-5 mM, typically 5 mL) were prepared in pH 7.3 phosphate buffer. […] Cultures were never allowed to exceed an optical density of 6. In a typical cell staining run a 1 mL sample was transferred to 1.5 mL Eppendorf tube and the growth media was removed by centrifugation of cells followed by decanting of the growth media. The cells were then re-suspended in phosphate buffer and an appropriate volume of oligoelectrolyte stock solution was added to achieve a 10-100 μM concentration of DSSN+ or DSBN+. The cells were then shaken lightly for 10-180 min at room temperature. The cells can then be imaged directly or following buffer exchange via centrifugation and cell re-suspension. In an alternate procedure, as is the same staining (membrane incorporation) procedure performed with MFC inoculation samples, the cells are simply stained (by addition of COE stock solutions prepared in growth media to culture samples) and imaged directly in the original growth media. […] Sample preparation is completed by depositing a ˜3-6 μL aliquot of stained cell solution onto a traditional slide followed by a cover slip (in this case the slide is inverted and placed over a water or oil immersion objective interfaced with either a Nikon or Leica confocal fluorescence microscope). […]
FIG. 8 consists of two sets of confocal microscopy fluorescence images of Baker's yeast, each stained and imaged in a 100 μM solution of DSSN+ (FIG. 8A) or DSBN+ (FIG. 8B) after 1 hour of shaking without exchanging the staining media.
The ability of DSBN+ and DSSN+ to be passed on to or exist within cell membranes of subsequent yeast generations born over the course of MFC operation was also investigated. […] Cells from each of these aliquots were imaged using a confocal microscope in epi-fluorescence mode and brightfield mode. […] FIG. 11B is an epi-fluorescence and brightfield image (inset, lower left) of a small group of yeast cells removed from the same MFC on the fourth day of operation.

[3] = UV-Vis absorption and photoluminescence (PL) spectroscopy in solvents of varying polarity; conditions: for η (quantum efficiency): relative to a fluorescein standard at pH 12
Excerpt: General photophysical and solvatochromatic features of the neutral (DSSN, DSBN) and charged (DSSN+, DSBN+) versions of each chromophore were probed by using UV-Vis absorption and photoluminescence (PL) spectroscopies.

[4] = UV-Vis absorbance and PL spectroscopy of oligoelectrolytes embedded in lipid bilayers (DMPC vesicles); conditions: for εmax / λabs / λem / η: lipid bilayer; for blue (hypsochromic) shift in λem / red (bathochromic) shift in λabs: lipid bilayer (DMPC vesicle membranes) compared to water / pH 7.3 HEPES buffer; for η: relative to a fluorescein standard at pH 12
Experimental: In order to prepare a typical membrane modified vesicle sample by sonication a methanolic DMPC solution containing a desired mol % DSBN+ was prepared (a typical solution is 1-5 mole % DSBN+ based on 50 micro-moles of DMPC). The methanol was slowly removed by argon flow while the solution was held at a constant 32-38° C. followed by vacuum oven drying at room temperature until dried to a constant weight. Next, enough H2O or pH 7 HEPES buffer was added to obtain a solution with a concentration of ˜1-20 mg/mL depending upon application (imaging or photoluminescence measurement for example). This solution was then sonicated at 40-50° C. for 0.5-7 hours, typically until the solution had lost most of its turbidity. This generates multi-lamellar vesicles. Uni-lamellar vesicles with diameters of ˜450 nm (with a somewhat broad size distribution based on cryo-TEM images) were formed as the resulting solution was filtered using 0.45 μm pore size syringe filters to yield a slightly turbid solution that must be further diluted to clarity with water or buffer in order to collect UV absorbance or photoluminescence spectra.
Efforts to modify the vesicle membranes with DSBN+ and DSSN+ followed modified literature procedures (Lin, A. J.; Slack, N. L.; Ahmad, A.; George, C. X.; Samuel, C. E.; Safinya, C. R. Biophys. J. 2003, 84, 3307-3316). First, a lipid stock solution containing the desired fraction of either DSSN+ or DSBN+, typically 1-5 mol % relative to lipid, was prepared in methanol. This lipid/COE stock solution was then heated and held above the transition temperature of the lipid (23° C. and 41° C. for DMPC and DPPC, respectively) as the solvent was removed via Argon flushing, followed by vacuum drying to a constant weight. The resulting lipid/COE solid was then suspended in pH=7.3 HEPES buffer to the desired concentration (1-10 mg/mL). Multi-lamellar vesicles were then formed by self-assembly upon sonication of the resulting solution. Uni-lamellar vesicles were prepared by filtration (using 0.45 or 0.2 μm pore size syringe filters) or by extrusion (Olson, F.; Hunt, C. A.; Szoka, F. C.; Vail, W. J.; Papahadjopoulos, D. Biochim. Biophys. Acta. 1979, 557, 9-23; Socaciu, C.; Bojarski, P.; Aberle, L.; Diehl, H. A. Biophys. Chem. 2002, 99, 1-15; Szoka, F.; Olson, F.; Heath, T.; Vail, W.; Mayhew, E.; Papahadjopoulos, D. Biochim. Biophys. Acta. 1980, 601, 559-571).

SMILES: CN(C)c1ccc2nc3ccc(=[N+](C)C)cc-3sc2c1 [methylene blue, reference compound]
- Maximum voltage (Vmax) (yeast; 13 μM): ~40 mV

SMILES: C[N+](C)(C)CCCCCCN(CCCCCC[N+](C)(C)C)c1ccc(/C=C/c2ccc(/C=C/c3ccc(/C=C/c4ccc(N(CCCCCC[N+](C)(C)C)CCCCCC[N+](C)(C)C)cc4)cc3)cc2)cc1 [DSSN+, 4,4′-bis(4′-(N,N-bis(6″-(N,N,N-trimethylammonium)hexyl)amino)-styryl)stilbene tetraiodide]
- transmembrane electron transport across sBLM (current in CV) [1]: facilitate transmembrane electron transport; also recorded: display higher currents with respect to the control experiments
- current response of sBLMs containing DSSN+ instead of DSBN+ ([1]; 2 mol % in sBLMs): greater current response
- oxidation potential (Eox) [2]: ~0.55 V
- accumulation within cell membranes (fluorescence images) (Baker's yeast): apparent preferential accumulation of the COEs within cell membranes
- presence of mediator in later cell generations (Baker's yeast; yeast stained with 25 μM, removed from MFC on day 4 of operation): demonstrate the presence of this mediator in later cell generations
- increase in voltage production compared to methylene blue (yeast; 190 nM vs 13 μM methylene blue): ~5 fold
- Maximum voltage (Vmax) (yeast; 190 nM): ~200 mV
- εmax (molar extinction coefficient at λmax) ([3]; DMSO): 9.8 Lmol^−1cm^−1 × 10^−4
- λabs ([3]; DMSO): 435 nm
- λem ([3]; DMSO): 596 nm
- η (quantum efficiency) ([3]; DMSO): 0.71
- εmax (molar extinction coefficient at λmax) ([3]; water): 6.6 Lmol^−1cm^−1 × 10^−4
- λabs ([3]; water): 412 nm
- λem ([3]; water): 594 nm
- η (quantum efficiency) ([3]; water): 0.06
- εmax [4]: 8.4 Lmol^−1cm^−1 × 10^−4
- λabs [4]: 433 nm
- λem [4]: 532 nm
- blue (hypsochromic) shift in λem [4]: 62 nm
- red (bathochromic) shift in λabs [4]: 21 nm
- η [4]: 0.85

SMILES: C[N+](C)(C)CCCCCCN(CCCCCC[N+](C)(C)C)c1ccc(C=Cc2ccc(C=Cc3ccc(N(CCCCCC[N+](C)(C)C)CCCCCC[N+](C)(C)C)cc3)cc2)cc1.[I-].[I-].[I-].[I-] [DSBN+, 1,4-bis(4′-(N,N-bis(6″-(N,N,N-trimethylammonium)hexyl)amino)-styryl)benzene tetraiodide]
- transmembrane electron transport across sBLM (current in CV) [1]: facilitate transmembrane electron transport; also recorded: display higher currents with respect to the control experiments
- oxidation potential (Eox) [2]: ~0.55 V
- accumulation within cell membranes (fluorescence images) (Baker's yeast): apparent preferential accumulation of the COEs within cell membranes
- Maximum voltage (Vmax) (yeast; 190 nM): ~55 mV
- εmax (molar extinction coefficient at λmax) ([3]; DMSO): 8.2 Lmol^−1cm^−1 × 10^−4
- λabs ([3]; DMSO): 419 nm
- λem ([3]; DMSO): 511 nm
- η (quantum efficiency) ([3]; DMSO): 0.86
- εmax (molar extinction coefficient at λmax) ([3]; water): 6.0 Lmol^−1cm^−1 × 10^−4
- λabs ([3]; water): 406 nm
- λem ([3]; water): 566 nm
- η (quantum efficiency) ([3]; water): 0.33
- εmax [4]: 4.8 Lmol^−1cm^−1 × 10^−4
- λabs [4]: 422 nm
- λem [4]: 474 nm
- blue (hypsochromic) shift in λem [4]: 92 nm
- red (bathochromic) shift in λabs [4]: 16 nm
- η [4]: 0.59

SMILES: ICCCCCCN(CCCCCCI)c1ccc(C=Cc2ccc(C=Cc3ccc(C=Cc4ccc(N(CCCCCCI)CCCCCCI)cc4)cc3)cc2)cc1 [DSSN, 4,4′-bis(4′-(N,N-bis(6″-iodohexyl)amino)styryl)stilbene]
- εmax (molar extinction coefficient at λmax) ([3]; DMSO): 9.6 Lmol^−1cm^−1 × 10^−4
- λabs ([3]; DMSO): 436 nm
- λem ([3]; DMSO): 602 nm
- η (quantum efficiency) ([3]; DMSO): 0.73
- εmax (molar extinction coefficient at λmax) ([3]; THF): 10.6 Lmol^−1cm^−1 × 10^−4
- λabs ([3]; THF): 426 nm
- λem ([3]; THF): 526 nm
- η (quantum efficiency) ([3]; THF): 0.89
- εmax (molar extinction coefficient at λmax) ([3]; toluene): 10.7 Lmol^−1cm^−1 × 10^−4
- λabs ([3]; toluene): 425 nm
- λem ([3]; toluene): 476 nm
- η (quantum efficiency) ([3]; toluene): 0.95

SMILES: CCCCCCCCCCCCN(CCCCCCCCCCCC)CCCCCCCCCCCC [TDA, tridodecylamine, reference compound]
- transmembrane electron transport across sBLM (current in CV) [1]: Little to no transmembrane electron transfer occurs; also recorded: featureless
